Test results reported in PubChem BioAssay (NCI).
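Briefly, cells in 96-well plates were exposed to five compound concentrations for 48 h, and endpoints were estimated by linear interpolation. GI50 is the concentration that inhibits growth by half. The concentration for full growth arrest is given as TGI.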 Residues, ends and D or L forms follow the SMILES beside them. *: point of attachment. Boc = CC(C)(C)OC(=O)*; OBn = c1ccc(CO*)cc1

How the values were obtained:
Experiment in all cases: NCI-60 cell line screen, 48 h
[1] = test system: A498 renal
[2] = test system: MDA-MB-435
[3] = test system: DU-145 prostate
[4] = test system: OVCAR-5 ovarian
[5] = test system: SF-539 CNS
[6] = test system: RXF 393 renal
[7] = test system: SR leukemia
[8] = test system: TK-10 renal
[9] = test system: HL-60(TB) leukemia
[10] = test system: SNB-75 CNS
[11] = test system: ACHN renal
[12] = test system: CAKI-1 renal
[13] = test system: NCI-H522 lung
[14] = test system: MOLT-4 leukemia
[15] = test system: SF-295 CNS
[16] = test system: OVCAR-3 ovarian
[17] = test system: SW-620 colon
[18] = test system: KM12 colon
[19] = test system: HT29 colon
[20] = test system: EKVX NSCLC
[21] = test system: OVCAR-4 ovarian
[22] = test system: SK-MEL-2 melanoma
[23] = test system: NCI-H460 lung
[24] = test system: MDA-MB-231 breast
[25] = test system: SK-MEL-5 melanoma
[26] = test system: NCI-H226 lung
[27] = test system: IGROV1 ovarian
[28] = test system: UACC-62 melanoma
[29] = test system: BT-549 breast
[30] = test system: CCRF-CEM leukemia
[31] = test system: HCT-15 colon
[32] = test system: NCI-H23 lung
[33] = test system: HOP-92 NSCLC
[34] = test system: LOX IMVI melanoma
[35] = test system: HCC-2998 colon
[36] = test system: UO-31 renal
[37] = test system: UACC-257 melanoma
[38] = test system: PC-3 prostate
[39] = test system: SN12C renal
[40] = test system: 786-0 renal
[41] = test system: SF-268 CNS
[42] = test system: SK-MEL-28 melanoma
[43] = test system: RPMI-8226 leukemia
[44] = test system: MALME-3M melanoma
[45] = test system: SNB-19 CNS
[46] = test system: COLO 205 colon
[47] = test system: U251 CNS
[48] = test system: SK-OV-3 ovarian
[49] = test system: HS 578T breast
[50] = test system: MCF7 breast
[51] = test system: M14 melanoma
[52] = test system: T-47D breast
[53] = test system: NCI/ADR-RES ovarian
[54] = test system: HCT-116 colon
[55] = test system: K-562 leukemia
[56] = test system: A549 NSCLC
[57] = test system: OVCAR-8 ovarian
[58] = test system: HOP-62 NSCLC

NCCCCCCNc1cc(-c2cccc(OC(F)(F)F)c2)nc2ccc(N3CCCC3)cc12
GI50 [1]: 1460 nM | TGI [1]: 2810 nM | GI50 [2]: 1640 nM | TGI [2]: 3010 nM | GI50 [3]: 1550 nM | TGI [3]: 2940 nM | GI50 [4]: 1830 nM | TGI [4]: 3280 nM | GI50 [5]: 1590 nM | TGI [5]: 3000 nM | GI50 [6]: 1220 nM | TGI [6]: 2520 nM | GI50 [7]: 349 nM | TGI [7]: 1730 nM | GI50 [8]: 1880 nM | TGI [8]: 3360 nM | GI50 [9]: 2010 nM | TGI [9]: 4000 nM | GI50 [10]: 1570 nM | TGI [10]: 2940 nM | GI50 [11]: 1740 nM | TGI [11]: 3110 nM | GI50 [12]: 1720 nM | TGI [12]: 3100 nM | GI50 [13]: 1660 nM | TGI [13]: 3100 nM | GI50 [14]: 1600 nM | TGI [14]: 3590 nM | GI50 [15]: 1750 nM | TGI [15]: 3150 nM | GI50 [16]: 1680 nM | TGI [16]: 3140 nM | GI50 [17]: 1480 nM | TGI [17]: 3020 nM | GI50 [18]: 1790 nM | TGI [18]: 3380 nM | GI50 [19]: 1620 nM | TGI [19]: 3060 nM | GI50 [20]: 1640 nM | TGI [20]: 3010 nM | GI50 [21]: 1590 nM | TGI [21]: 3170 nM

COc1cccc2c(=O)c3c(sc12)c(NCCCN)nc1ccccc13
GI50 [22]: 2000 nM | TGI [22]: 4150 nM | GI50 [23]: 745 nM | TGI [23]: 2230 nM | GI50 [24]: 1290 nM | TGI [24]: 2670 nM | GI50 [25]: 1690 nM | TGI [25]: 3070 nM | GI50 [1]: 1680 nM | TGI [1]: 3150 nM | GI50 [2]: 1800 nM | TGI [2]: 3340 nM | GI50 [26]: 1520 nM | TGI [26]: 3150 nM | GI50 [3]: 1480 nM | TGI [3]: 2820 nM | GI50 [4]: 1650 nM | TGI [4]: 3010 nM | GI50 [5]: 1600 nM | TGI [5]: 2970 nM | GI50 [6]: 1530 nM | TGI [6]: 2960 nM | GI50 [27]: 858 nM | TGI [27]: 2160 nM | GI50 [28]: 1640 nM | TGI [28]: 3050 nM | GI50 [29]: 10800 nM | TGI [29]: 26500 nM | GI50 [30]: 1910 nM | TGI [30]: 4860 nM | GI50 [31]: 1320 nM | TGI [31]: 2700 nM | GI50 [32]: 1560 nM | TGI [32]: 2990 nM | GI50 [33]: 1270 nM | TGI [33]: 2750 nM | GI50 [34]: 1300 nM | TGI [34]: 2680 nM | GI50 [8]: 1990 nM | TGI [8]: 3630 nM | GI50 [35]: 1720 nM | TGI [35]: 3260 nM | GI50 [36]: 832 nM | TGI [36]: 2180 nM | GI50 [9]: 1980 nM | TGI [9]: 3940 nM | GI50 [10]: 1640 nM | TGI [10]: 3200 nM | GI50 [11]: 1320 nM | TGI [11]: 2590 nM | GI50 [37]: 2000 nM | TGI [37]: 4170 nM | GI50 [12]: 1480 nM | TGI [12]: 2820 nM | GI50 [13]: 1810 nM | TGI [13]: 3650 nM | GI50 [38]: 1580 nM | TGI [38]: 3140 nM | GI50 [39]: 1450 nM | TGI [39]: 2850 nM | GI50 [15]: 1770 nM | TGI [15]: 3250 nM | GI50 [40]: 1650 nM | TGI [40]: 3140 nM | GI50 [16]: 1410 nM | TGI [16]: 2910 nM | GI50 [17]: 1300 nM | TGI [17]: 2810 nM | GI50 [41]: 1480 nM | TGI [41]: 3320 nM | GI50 [42]: 1870 nM | TGI [42]: 3360 nM | GI50 [18]: 1620 nM | TGI [18]: 3210 nM | GI50 [43]: 2110 nM | TGI [43]: 4920 nM | GI50 [19]: 1410 nM | TGI [19]: 2990 nM | GI50 [44]: 1580 nM | TGI [44]: 2990 nM | GI50 [20]: 1430 nM | TGI [20]: 2810 nM | GI50 [21]: 1730 nM | TGI [21]: 3640 nM | GI50 [45]: 1610 nM | TGI [45]: 3040 nM

CC(C)C(NC(=O)OC(C)(C)C)C(=O)N1CCCC1C(=O)OCc1ccccc1 (stereo not drawn) (Boc-Val-Pro-OBn; configuration not given here)
GI50 [22]: 46.3 µg/mL | GI50 [7]: 90.6 µg/mL

Cc1nnc2c3c(-c4ccccc4)c(-c4ccccc4)oc3nc(N(C)C)n12
TGI [24]: > 100000 nM | TGI [46]: > 100000 nM | TGI [25]: > 100000 nM | TGI [1]: > 100000 nM | TGI [2]: > 100000 nM | TGI [47]: > 100000 nM | TGI [26]: > 100000 nM | TGI [3]: > 100000 nM | TGI [4]: > 100000 nM | TGI [48]: > 100000 nM | TGI [49]: > 100000 nM | TGI [50]: > 100000 nM | TGI [5]: > 100000 nM | TGI [6]: > 100000 nM | TGI [51]: > 100000 nM | TGI [27]: > 100000 nM | TGI [28]: > 100000 nM | TGI [30]: > 100000 nM | TGI [7]: 67200 nM | TGI [52]: > 100000 nM | TGI [31]: > 100000 nM | TGI [32]: > 100000 nM | TGI [33]: > 100000 nM | TGI [34]: > 100000 nM | TGI [8]: > 100000 nM | TGI [35]: 60500 nM | TGI [36]: > 100000 nM | TGI [9]: 46900 nM | TGI [53]: > 100000 nM | TGI [10]: 72400 nM | TGI [11]: > 100000 nM | TGI [37]: > 100000 nM | TGI [12]: > 100000 nM | TGI [13]: > 100000 nM | TGI [14]: > 100000 nM | TGI [15]: > 100000 nM | TGI [40]: > 100000 nM | TGI [54]: > 100000 nM | TGI [17]: > 100000 nM | TGI [41]: > 100000 nM | TGI [55]: > 100000 nM | TGI [42]: > 100000 nM | TGI [18]: > 100000 nM | TGI [43]: 82300 nM | TGI [19]: > 100000 nM | TGI [56]: > 100000 nM | TGI [57]: > 100000 nM | TGI [20]: > 100000 nM | TGI [21]: > 100000 nM | TGI [45]: > 100000 nM

CCN1C/C(=C\c2ccc(Cl)cc2)C2=NN(c3ccccc3)C(c3ccc(Cl)cc3)C2C1 (configuration not stated)
TGI [23]: > 100000 nM | TGI [46]: > 100000 nM | TGI [25]: > 100000 nM | TGI [1]: > 100000 nM | TGI [26]: > 100000 nM | TGI [3]: > 100000 nM | TGI [4]: > 100000 nM | TGI [48]: > 100000 nM | TGI [50]: > 100000 nM | TGI [6]: > 100000 nM | TGI [51]: > 100000 nM | TGI [58]: > 100000 nM | TGI [28]: > 100000 nM | TGI [29]: > 100000 nM | TGI [31]: > 100000 nM | TGI [32]: > 100000 nM | TGI [34]: > 100000 nM | TGI [8]: > 100000 nM | TGI [36]: > 100000 nM | TGI [53]: > 100000 nM | TGI [10]: > 100000 nM | TGI [11]: > 100000 nM | TGI [37]: > 100000 nM | TGI [13]: > 100000 nM | TGI [38]: > 100000 nM | TGI [15]: > 100000 nM | TGI [40]: > 100000 nM | TGI [54]: > 100000 nM | TGI [56]: > 100000 nM | TGI [57]: > 100000 nM | TGI [20]: > 100000 nM | TGI [45]: > 100000 nM
